Measurements from PMC467089, “Click estradiol dimers with novel aromatic bridging units: synthesis and anticancer evaluation” (Journal of Enzyme Inhibition and Medicinal Chemistry, 2024).
“Also recorded” adds a separate entry of the source.

Experiments:
CCRF-CEM lymphoblasts [1] = test: Cell cycle analysis by flow cytometry (propidium iodide); type: cell-based, human
Method in brief: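 CCRF-CEM cells treated 24 h, then fixed in cold 70% ethanol, permeabilised with 0.25% Triton X-100 and stained with anti-phospho-histone H3 (Ser10). After 50 μg/mL RNase and propidium iodide, analysed by flow cytometry at 488 nm; sub-G1 events counted as non-viable with fragmented DNA.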

[2] = MTS cytotoxicity assay, HUVEC; type: cell-based; settings: human
Method in brief: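 MTS read-out after 72 h compound exposure at 37 °C. Cells plated the day before, treated with fourfold serial dilutions from DMSO stocks; duplicate wells, three independent experiments.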

[3] = MTS cytotoxicity assay, BJ; type: cell-based; settings: human
Method in brief: (§1)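 Overnight-seeded cells → fourfold serial compound dilutions (DMSO) → 72 h, 37 °C, 5% CO2 → MTS added. Duplicates ×3 biological reps.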

[4] = test system: HCT116 (colorectal adenocarcinoma); test: MTS cytotoxicity assay, HCT116; type: cell-based; settings: Homo sapiens, HCT-116, 72 h, read-out: IC50 cytotoxic activity HCT116
Method in brief: as §1

[5] = test system: CCRF-CEM (childhood T-cell acute lymphoblastic leukaemia); test: MTS cytotoxicity assay, CCRF-CEM; type: cell-based; settings: Homo sapiens, 72 h, read-out: IC50 cytotoxic activity CCRF-CEM
Method in brief: as §1

CCRF-CEM lymphoblasts [6] = test: Phospho-histone H3 (Ser10) mitotic marker, flow cytometry; type: cell-based, human
Method in brief: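 Mitotic fraction scored by flow cytometry (488 nm) using Ser10-phosphorylated histone H3 antibody plus propidium iodide DNA stain, following RNase. CCRF-CEM lymphoblasts had 24 h compound exposure before ethanol fixation and Triton X-100 permeabilisation; events below G1 DNA content classed as fragmented-DNA, non-viable cells.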

CCRF-CEM lymphoblasts [7] = test: BrU incorporation analysis (RNA synthesis); type: cell-based, human
Method in brief: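 CCRF-CEM cells were treated with compounds for 24 h, then pulsed with 1 mM BrU for 30 min and fixed in 1% paraformaldehyde/0.05% NP-40. BrU was detected with a cross-reacting anti-BrdU antibody and FITC secondary, with propidium iodide/RNase counterstain; value is percentage of BrU-positive cells by flow cytometry.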

U2OS (osteosarcoma) = test: MTS cytotoxicity assay, U2OS; type: cell-based, human; settings: Homo sapiens, U2OS, 72 h, read-out: IC50 cytotoxic activity U2OS
Method in brief: as §1

[8] = MTS cytotoxicity assay, MRC-5; type: cell-based; settings: human
Method in brief: as §1

[9] = test system: A549 (lung adenocarcinoma); test: MTS cytotoxicity assay, A549; type: cell-based, human; settings: Homo sapiens, A549, 72 h, read-out: IC50 cytotoxic activity A549
Method in brief: as §1

[10] = test system: K562 (chronic myelogenous leukaemia); test: MTS cytotoxicity assay, K562; type: cell-based; settings: Homo sapiens, K562, 72 h, read-out: IC50 cytotoxic activity K562
Method in brief: as §1

porcine brain tubulin = target: T1, porcine brain tubulin (Sus scrofa, UniProt P02550+P02554); test: Tubulin polymerisation assay; type: biochemical; settings: 10 μmol/L, Vmax relative to DMSO
T1 construct: purchased Cytoskeleton, Denver, CO; host or cells: porcine brain (tissue-purified)
Method in brief: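 Polymerisation of >99% pure porcine brain tubulin followed at 37 °C with a commercial kit, with test compounds at 10 μmol/L or DMSO. Maximum polymerisation velocity (Vmax) derived from the polymerisation curves.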

[11] = test system: CEM-DNR (daunorubicin resistant variant of CCRF-CEM); test: MTS cytotoxicity assay, CEM-DNR; type: cell-based, human; settings: Homo sapiens, CEM-DNR, 72 h, read-out: IC50 cytotoxic activity CEM-DNR
Method in brief: as §1

[12] = test system: HCT116p53−/− (p53 gene null variant of HCT116); test: MTS cytotoxicity assay, HCT116p53−/−; type: cell-based; settings: Homo sapiens, HCT-116, 72 h, read-out: IC50 cytotoxic activity HCT116p53-
Method in brief: as §1

[13] = test system: K562-TAX (paclitaxel-resistant variant of K562); test: MTS cytotoxicity assay, K562-TAX; type: cell-based, human; settings: Homo sapiens, K562-Tax, 72 h, read-out: IC50 cytotoxic activity K562-TAX
Method in brief: as §1

CCRF-CEM lymphoblasts [14] = test: BrDU incorporation analysis (DNA synthesis); type: cell-based, human
Method in brief: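 Percentage of BrDU-incorporating cells was measured by flow cytometry after anti-BrdU/FITC and propidium iodide staining. Before that, CCRF-CEM lymphoblasts treated 24 h with compound received a 30-min 10 μM BrDU pulse, then ethanol fixation and 2 M HCl denaturation.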

T1 sequence (P02550 whole entry): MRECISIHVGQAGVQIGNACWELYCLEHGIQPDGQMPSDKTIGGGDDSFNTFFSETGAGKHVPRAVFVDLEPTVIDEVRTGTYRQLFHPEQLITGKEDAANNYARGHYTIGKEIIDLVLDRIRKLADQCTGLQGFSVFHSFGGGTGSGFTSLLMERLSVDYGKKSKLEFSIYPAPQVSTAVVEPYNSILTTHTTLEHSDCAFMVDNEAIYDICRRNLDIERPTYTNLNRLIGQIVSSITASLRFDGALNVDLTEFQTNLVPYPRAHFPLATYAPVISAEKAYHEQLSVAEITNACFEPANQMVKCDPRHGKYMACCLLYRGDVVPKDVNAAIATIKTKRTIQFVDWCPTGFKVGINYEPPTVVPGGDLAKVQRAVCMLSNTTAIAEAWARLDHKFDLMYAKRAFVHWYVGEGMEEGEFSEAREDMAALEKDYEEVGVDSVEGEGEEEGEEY
T1 sequence (P02554 whole entry): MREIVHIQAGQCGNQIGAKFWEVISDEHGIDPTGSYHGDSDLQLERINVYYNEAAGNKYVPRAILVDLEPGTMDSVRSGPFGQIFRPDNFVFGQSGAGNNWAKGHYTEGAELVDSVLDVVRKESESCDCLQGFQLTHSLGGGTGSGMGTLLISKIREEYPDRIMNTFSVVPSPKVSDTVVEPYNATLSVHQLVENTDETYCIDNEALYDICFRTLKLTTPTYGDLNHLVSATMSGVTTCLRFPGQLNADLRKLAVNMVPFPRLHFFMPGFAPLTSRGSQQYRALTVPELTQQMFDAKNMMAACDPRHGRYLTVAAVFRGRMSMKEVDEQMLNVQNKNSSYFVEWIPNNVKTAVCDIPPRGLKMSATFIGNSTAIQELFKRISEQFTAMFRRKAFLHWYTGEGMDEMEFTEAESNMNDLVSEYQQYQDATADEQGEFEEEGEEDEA

SMILES	<G1 (sub-G1, fragmented DNA), % of positive cells (CCRF-CEM lymphoblasts [1]; 1×IC50, 24 h) [%]	>G2/M (polyploidy), % of positive cells (CCRF-CEM lymphoblasts [1]; 1×IC50, 24 h) [%]	G0/G1, % of positive cells (CCRF-CEM lymphoblasts [1]; 1×IC50, 24 h) [%]	G2/M, % of positive cells (CCRF-CEM lymphoblasts [1]; 1×IC50, 24 h) [%]	S, % of positive cells (CCRF-CEM lymphoblasts [1]; 1×IC50, 24 h) [%]	<G1 (sub-G1, fragmented DNA), % of positive cells (CCRF-CEM lymphoblasts [1]; 5×IC50, 24 h) [%]	>G2/M (polyploidy), % of positive cells (CCRF-CEM lymphoblasts [1]; 5×IC50, 24 h) [%]	G0/G1, % of positive cells (CCRF-CEM lymphoblasts [1]; 5×IC50, 24 h) [%]	G2/M, % of positive cells (CCRF-CEM lymphoblasts [1]; 5×IC50, 24 h) [%]	S, % of positive cells (CCRF-CEM lymphoblasts [1]; 5×IC50, 24 h) [%]	IC50 at 72 h [2] [µM]	IC50 at 72 h [3] [µM]	IC50 [4] [µM]	IC50 [5] [µM]	pH3Ser10, % of positive cells (CCRF-CEM lymphoblasts [6]; 1×IC50, 24 h) [%]	pH3Ser10, % of positive cells (CCRF-CEM lymphoblasts [6]; 5×IC50, 24 h) [%]	BrU, % of positive cells (CCRF-CEM lymphoblasts [7]; 1×IC50, 24 h) [%]	BrU, % of positive cells (CCRF-CEM lymphoblasts [7]; 5×IC50, 24 h) [%]	IC50 (U2OS (osteosarcoma)) [µM]	IC50 at 72 h [8] [µM]	further results
Cc1cc(C)c(Cn2cc([C@]3(O)CC[C@H]4[C@@H]5CCc6cc(O)ccc6[C@H]5CC[C@@]43C)nn2)cc1Cn1cc([C@]2(O)CC[C@H]3[C@@H]4CCc5cc(O)ccc5[C@H]4CC[C@@]32C)nn1 [ED9, 17,17′-[(4,6-Dimethyl-1,3-phenylene)bis(methylene-1H-1,2,3-triazole-1,4-diyl)]di[estra-1,3,5(10)-triene-3,17β-diol]]	3.92	13.86	38.18	23.92	37.90	11.48	17.77	4.31	68.38	27.32	0.038 ± 0.011	> 50	2.02 ± 0.3	1.69 ± 0.057	8.42	41.35	23.92	38.94	5.26 ± 1.69	3.2 ± 0.89	IC50 [9]: > 50 µM; IC50 [10]: 1.27 ± 0.12 µM; inhibitory activity against tubulin polymerisation (in words) (porcine brain tubulin): comparable or better inhibitory activity; IC50 [11]: > 50 µM; IC50 [12]: 1.96 ± 0.26 µM; IC50 [13]: > 50 µM; BrDU, % of positive cells (CCRF-CEM lymphoblasts [14]; 1×IC50, 24 h): 46.72%; BrDU, % of positive cells (CCRF-CEM lymphoblasts [14]; 5×IC50, 24 h): 8.89%
C[C@]12CC[C@@H]3c4ccc(O)cc4CC[C@H]3[C@@H]1CC[C@@]2(O)c1cn(Cc2ccc(O)c(Cn3cc([C@]4(O)CC[C@H]5[C@@H]6CCc7cc(O)ccc7[C@H]6CC[C@@]54C)nn3)n2)nn1 [ED12, 17,17′-[(3-Hydroxypyridine-2,6-diyl)bis(methylene-1H-1,2,3-triazole-1,4-diyl)]di[estra-1,3,5(10)-triene-3,17β-diol]]	11.00	17.19	4.79	66.70	28.50	16.07	14.18	22.95	32.79	44.26	0.657 ± 0.132	11.3 ± 1.41	8.78 ± 0.88	6.14 ± 0.93	13.49	47.08	33.92	8.14	16.8 ± 3.46	14.2 ± 3.52	IC50 [9]: > 50 µM; IC50 [10]: 4.52 ± 0.64 µM; inhibitory activity against tubulin polymerisation (in words) (porcine brain tubulin): comparable or better inhibitory activity; also recorded: comparable to that of the original ED; IC50 [11]: > 50 µM; IC50 [12]: 10.5 ± 2.48 µM; IC50 [13]: > 50 µM; BrDU, % of positive cells (CCRF-CEM lymphoblasts [14]; 1×IC50, 24 h): 12.43%; BrDU, % of positive cells (CCRF-CEM lymphoblasts [14]; 5×IC50, 24 h): 7.46%
